Test system: Xanthomonas campestris
Assay: Antimicrobial activity against Xanthomonas campestris at 0.5 mg/disk
Assay type: functional

O=c1cc(-c2ccc(O)c(O)c2)oc2cc(O[C@@H]3O[C@H](CO)[C@@H](O)[C@H](O)[C@H]3O)cc(O)c12 [GALUTEOLIN]
inhibition zone (IZ): 3 mm

From ChEMBL document CHEMBL1150746, “Native American food and medicinal plants, 8. Water-soluble constituents of Lomatium dissectum” (1988)
